molecular target: T1, DCN1 (Homo sapiens (Human), UniProt Q96GG9); test: not given; conditions: class symbols H, M, M-L, legend not given; cited from earlier work
T1 sequence (Q96GG9 whole entry): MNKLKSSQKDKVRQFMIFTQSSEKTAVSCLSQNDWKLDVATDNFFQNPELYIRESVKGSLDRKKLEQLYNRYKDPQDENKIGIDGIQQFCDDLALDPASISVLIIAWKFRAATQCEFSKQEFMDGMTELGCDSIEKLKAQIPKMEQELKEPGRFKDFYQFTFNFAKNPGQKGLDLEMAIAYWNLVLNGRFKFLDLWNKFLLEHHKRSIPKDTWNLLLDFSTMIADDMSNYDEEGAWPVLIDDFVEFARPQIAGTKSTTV

SMILES | Pulse-Chase inh @ 30 uM
COc1ccc([C@@H]2c3c(C)nn(C)c3NC(=O)[C@H]2NC(=O)c2cccc(C)c2)cc1F (racemic) [SJ000398158] | M-L
Cc1nn(C)c2c1[C@@H](c1ccc(F)c(F)c1)[C@H](NC(=O)c1ccc(Cl)cc1)C(=O)N2 (racemic) [SJ000399589] | M-L

molecular target: T1, DCN1; test: TR-FRET binding assay (biotin-DCN1 / Ac-UBE2M12-AlexaFluor488); conditions: mean ± SD (n); read-out: DCN1_TRFRET Mean EC50
Summary of the method: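 Biotinylated DCN1 binding to Ac-UBE2M12-AlexaFluor488 read by TR-FRET; assay cocktail pre-incubated 1 h at room temperature before compounds added from DMSO stocks by pin transfer. IC50 is the mean of three replicates ± SD; compounds tested in triplicate or more.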

SMILES | EC50 [µM]
CCN1C(=O)[C@@H](NS(=O)(=O)c2cccc(C(F)(F)F)c2)[C@@H](c2ccc(F)cc2)c2c(C)nn(-c3ccccc3)c21 [RG-0013808, N-[(4S,5S)-7-ethyl-4-(4-fluorophenyl)-3-methyl-6-oxo-1-phenyl-1H,4H,5H,6H,7H-pyrazolo[3,4-b]pyridin-5-yl]-3-(trifluoromethyl)benzene-1-sulfonamide] | > 36.5
CCCN1C(=O)[C@@H](NC(=O)c2cccc(C)c2)[C@@H](c2ccc(F)cc2)c2c(C)nn(-c3ccccc3)c21 [RG-0007415, N-[(4S,5S)-4-(4-fluorophenyl)-3-methyl-6-oxo-1-phenyl-7-propyl-1H,4H,5H,6H,7H-pyrazolo[3,4-b]pyridin-5-yl]-3-methylbenzamide] | 1.04 ± 0.204
CCN1C(=O)[C@@H](NC(=O)c2cccc(C)c2)[C@@H](c2ccc(F)cc2)c2c(C)nn(C(C)C(F)(F)F)c21 (stereo partly drawn) [RG-0008879, N-[(4S,5S)-7-ethyl-4-(4-fluorophenyl)-3-methyl-6-oxo-1-(1,1,1-trifluoropropan-2-yl)-1H,4H,5H,6H,7H-pyrazolo[3,4-b]pyridin-5-yl]-3-methylbenzamide] | 7.26 ± 1.09
Cc1cccc(C(=O)N[C@@H]2C(=O)N(C(C)C)c3c(c(C)nn3-c3ccccc3)[C@@H]2c2ccc(F)cc2)c1 [RG-0008670, N-[(4S,5S)-4-(4-fluorophenyl)-3-methyl-6-oxo-1-phenyl-7-(propan-2-yl)-1H,4H,5H,6H,7H-pyrazolo[3,4-b]pyridin-5-yl]-3-methylbenzamide] | 4.14 ± 0.765
CCN1C(=O)[C@@H](NC(=O)c2ccc(C)s2)[C@@H](c2ccc(F)cc2)c2c(C)nn(-c3ccccc3)c21 [RG-0014062, N-[(4S,5S)-7-ethyl-4-(4-fluorophenyl)-3-methyl-6-oxo-1-phenyl-1H,4H,5H,6H,7H-pyrazolo[3,4-b]pyridin-5-yl]-5-methylthiophene-2-carboxamide] | 2.34 ± 0.0772
C=CC(=O)NCc1nn(-c2ccccc2)c2c1[C@H](c1ccc(F)cc1)[C@H](NC(=O)c1cccc(C)c1)C(=O)N2CC [RG-0013063, N-[(4S,5S)-7-ethyl-4-(4-fluorophenyl)-6-oxo-1-phenyl-3-[(prop-2-enamido)methyl]-1H,4H,5H,6H,7H-pyrazolo[3,4-b]pyridin-5-yl]-3-methylbenzamide] | 0.0968 ± 0.00721
CCN1C(=O)[C@@H](NC(=O)c2cccc(C)c2)[C@@H](c2ccc(F)cc2)c2c(C)nn(CC(F)(F)F)c21 [RG-0008871, N-[(4S,5S)-7-ethyl-4-(4-fluorophenyl)-3-methyl-6-oxo-1-(2,2,2-trifluoroethyl)-1H,4H,5H,6H,7H-pyrazolo[3,4-b]pyridin-5-yl]-3-methylbenzamide] | 0.729 ± 0.0901
CC(=O)CN1C(=O)[C@@H](NC(=O)c2cccc(C)c2)[C@@H](c2ccc(F)cc2)c2c(C)nn(-c3ccccc3)c21 [RG-0009508, N-[(4S,5S)-4-(4-fluorophenyl)-3-methyl-6-oxo-7-(2-oxopropyl)-1-phenyl-1H,4H,5H,6H,7H-pyrazolo[3,4-b]pyridin-5-yl]-3-methylbenzamide] | 7.05 ± 1.67
CCN1C(=O)[C@@H](NC(=O)c2cccc(C(F)(F)F)c2)[C@@H](c2ccc(F)nc2)c2c(CO)nn(-c3ccccc3)c21 [RG-0013992, N-[(4S,5S)-7-ethyl-4-(6-fluoropyridin-3-yl)-3-(hydroxymethyl)-6-oxo-1-phenyl-1H,4H,5H,6H,7H-pyrazolo[3,4-b]pyridin-5-yl]-3-(trifluoromethyl)benzamide] | 0.157 ± 0.0192
CCCN1C(=O)[C@@H](NC(=O)c2cccc(C)c2)[C@@H](c2ccc(F)cc2)c2c(C)nn(CCC)c21 [RG-0008666, N-[(4S,5S)-4-(4-fluorophenyl)-3-methyl-6-oxo-1,7-dipropyl-1H,4H,5H,6H,7H-pyrazolo[3,4-b]pyridin-5-yl]-3-methylbenzamide] | 1.17 ± 0.0993
CCN1C(=O)[C@@H](NC(=O)c2cccc(C(F)(F)F)c2)[C@@H](c2ccc(C)s2)c2c(C)nn(-c3ccccc3)c21 [RG-0014004, N-[(4S,5S)-7-ethyl-3-methyl-4-(5-methylthiophen-2-yl)-6-oxo-1-phenyl-1H,4H,5H,6H,7H-pyrazolo[3,4-b]pyridin-5-yl]-3-(trifluoromethyl)benzamide] | 1.41 ± 0.0159
CCC(C)n1nc(C)c2c1N(C(C)=O)C(=O)[C@@H](NC(=O)c1cccc(C)c1)[C@H]2c1ccc(F)cc1 (stereo partly drawn) [RG-0005665, N-[(4S,5S)-7-acetyl-1-(butan-2-yl)-4-(4-fluorophenyl)-3-methyl-6-oxo-1H,4H,5H,6H,7H-pyrazolo[3,4-b]pyridin-5-yl]-3-methylbenzamide] | 5.31 ± 0.85
CCN1C(=O)[C@@H](NC(=O)c2cccc(Br)c2)[C@@H](c2ccc(F)cc2)c2c(C)nn(-c3ccccc3)c21 [RG-0013061, 3-bromo-N-[(4S,5S)-7-ethyl-4-(4-fluorophenyl)-3-methyl-6-oxo-1-phenyl-1H,4H,5H,6H,7H-pyrazolo[3,4-b]pyridin-5-yl]benzamide] | 0.485 ± 0.0411
CCN1C(=O)[C@@H](NC(=O)c2cccc(F)c2)[C@@H](c2ccc(F)cc2)c2c(C)nn(-c3ccccc3)c21 [RG-0013062, N-[(4S,5S)-7-ethyl-4-(4-fluorophenyl)-3-methyl-6-oxo-1-phenyl-1H,4H,5H,6H,7H-pyrazolo[3,4-b]pyridin-5-yl]-3-fluorobenzamide] | 1.81 ± 0.153
CCN1C(=O)[C@@H](NC(=O)c2cccc(C(F)(F)F)c2)[C@@H](c2ccc(F)cc2)c2c(CNC(=O)OC)nn(-c3ccccc3)c21 [RG-0014054, methyl N-{[(4S,5S)-7-ethyl-4-(4-fluorophenyl)-6-oxo-1-phenyl-5-[3-(trifluoromethyl)benzamido]-1H,4H,5H,6H,7H-pyrazolo[3,4-b]pyridin-3-yl]methyl}carbamate] | 0.114 ± 0.00473
CCN1C(=O)[C@@H](NC(=O)c2ccc3ncsc3c2)[C@@H](c2ccc(F)cc2)c2c(C)nn(-c3ccccc3)c21 [RG-0014158, N-[(4S,5S)-7-ethyl-4-(4-fluorophenyl)-3-methyl-6-oxo-1-phenyl-1H,4H,5H,6H,7H-pyrazolo[3,4-b]pyridin-5-yl]-1,3-benzothiazole-6-carboxamide] | 6.31 ± 0.465
CCN1C(=O)[C@@H](NC(=O)c2cccc(C(F)(F)F)n2)[C@@H](c2ccc(F)cc2)c2c(C)nn(-c3ccccc3)c21 [RG-0014061, N-[(4S,5S)-7-ethyl-4-(4-fluorophenyl)-3-methyl-6-oxo-1-phenyl-1H,4H,5H,6H,7H-pyrazolo[3,4-b]pyridin-5-yl]-6-(trifluoromethyl)pyridine-2-carboxamide] | 1.11 ± 0.13
CCN1C(=O)[C@@H](NC(=O)c2cccc(C)c2)[C@@H](c2ccc(F)nc2)c2c(C)nn(-c3ccccc3)c21 [RG-0009513, N-[(4S,5S)-7-ethyl-4-(6-fluoropyridin-3-yl)-3-methyl-6-oxo-1-phenyl-1H,4H,5H,6H,7H-pyrazolo[3,4-b]pyridin-5-yl]-3-methylbenzamide] | 0.255 ± 0.0282
Cc1cccc(C(=O)N[C@@H]2C(=O)N(CC(F)(F)F)c3c(c(C)nn3-c3ccccc3)[C@@H]2c2ccc(F)cc2)c1 [RG-0009509, N-[(4S,5S)-4-(4-fluorophenyl)-3-methyl-6-oxo-1-phenyl-7-(2,2,2-trifluoroethyl)-1H,4H,5H,6H,7H-pyrazolo[3,4-b]pyridin-5-yl]-3-methylbenzamide] | 7 ± 1.71

Source: patent US12409171B2, “Pharmaceutically active pyrazolo-pyridone modulators of DCN1/2-mediated cullin neddylation” (UNIVERSITY OF KENTUCKY RESEARCH FOUNDATION, priority 2019, dated 2025)
